# Values quoted from earlier work as cited in patent US20240397939A1, “COMPOSITIONS COMPRISING DIFFERENT DRIFT RETARDING AGENTS” (BAYER CROPSCIENCE LP, priority 2021, published 2024).
# Conditions: known HLB value, estimation by Griffin's method
row,Substance,HLB
1,Polysorbate 80 (polyoxyethylene sorbitan monooleate) [Tween® 80],15
2,Sorbitan monooleate [Span® 80],4.3
